Laboratory results reported in patent US11248003B2, “Pyrimidine derivative having effect of inhibiting cancer cell growth and pharmaceutical composition containing same” (ONCOBIX CO., LTD., priority 2017, dated 2022).
Where two headings read alike, the source gives them in different places.

Legend:
MET kinase = MET kinase (Homo sapiens (Human), UniProt P08581); test: Kinase inhibitory activity, MET; assay type: biochemical; settings: 33P-ATP filter assay, about 40 minutes at room temperature
Description: The kinase inhibitory activity was measured by the following method:
The compound to be evaluated (DMSO solution) and Mg/ATP were added to proceed the reaction.
After about 40 minutes at room temperature, the reaction was stopped by the addition of 10 μL of 0.5% phosphoric acid.
10 μL of 0.5% reaction solution was spotted onto a P30 filtermat.
Washed 4 times for about 4 minutes in 0.425% phosphoric acid. Washed once in methanol, and then dried and analyzed by scintillation counting to measure IC50 value.

[1] = system: Ba/F3 cell line expressing EGFR DEL19/T790M/C797S; test: Inhibitory effect on cancer cell growth (MTT), Ba/F3 DEL19/T790M/C797S; assay type: cell-based, Murine; settings: for IC50: read-out: DEL19/T790M/C797S (IC50); for inhibitory activity on C797S mutant EGFR-expressed cancer cell lines, comparison in words: both Ba/F3 triple mutant lines of Table 2
Description: (§1) The inhibitory effect on the growth of a C797S-expressed triple mutant Ba/F3 cancer cell line was measured for the compounds obtained in the examples above. The kinase assay and anticancer efficacy activity using a Ba/F3 stable cell line were measured by the following method:
(§2) 1. […] All constructs were retroviral vectors and finally completed viral particles for infection.
(§3) 2. Construction of Ba/F3 stable cell lines: Murine lymphoid cells undergo IL-3 dependent growth. […] Briefly, each construct was infected into Ba/F3 cell lines, and after 48 hours, IL-3 was removed with media exchange and cells were cultured. However, puromycin selection was performed for wild type EGFR.
(§4) 3. Identification of Ba/F3 stable cell lines: All stable cell lines were subjected to western blotting to confirm the expression of each construct and EGFR activity (EGFR wild type and L858R were omitted).
(§5) 5. Anticancer effect verification by MTT assay: 2×10^3 cells were seeded in a 96-well plate. After 24 hours, each of the drugs was treated in a dose-dependent manner, incubated for 72 hours, reacted with 15 μL of MTT reagent for 4 hours, and then 100 μL of 10% SDS was added thereto and incubated for 24 hours. […] MTT results were analyzed by measuring IC50 values through prism software.

[2] = system: Ba/F3 cell line expressing EGFR L858R/T790M/C797S; test: Inhibitory effect on cancer cell growth (MTT), Ba/F3 L858R/T790M/C797S; assay type: cell-based, Murine; settings: read-out: L858R/T790M/C797S (IC50)
Description: as §1, §2, §3, §4, §5

[3] = Mus musculus, BaF3, Ba/F3 stable cell line, MTT, 72 hours, GI50
[4] = Ba/F3 stable cell line, MTT, 72 hours, GI50

MET kinase, sequence (P08581 25-1390): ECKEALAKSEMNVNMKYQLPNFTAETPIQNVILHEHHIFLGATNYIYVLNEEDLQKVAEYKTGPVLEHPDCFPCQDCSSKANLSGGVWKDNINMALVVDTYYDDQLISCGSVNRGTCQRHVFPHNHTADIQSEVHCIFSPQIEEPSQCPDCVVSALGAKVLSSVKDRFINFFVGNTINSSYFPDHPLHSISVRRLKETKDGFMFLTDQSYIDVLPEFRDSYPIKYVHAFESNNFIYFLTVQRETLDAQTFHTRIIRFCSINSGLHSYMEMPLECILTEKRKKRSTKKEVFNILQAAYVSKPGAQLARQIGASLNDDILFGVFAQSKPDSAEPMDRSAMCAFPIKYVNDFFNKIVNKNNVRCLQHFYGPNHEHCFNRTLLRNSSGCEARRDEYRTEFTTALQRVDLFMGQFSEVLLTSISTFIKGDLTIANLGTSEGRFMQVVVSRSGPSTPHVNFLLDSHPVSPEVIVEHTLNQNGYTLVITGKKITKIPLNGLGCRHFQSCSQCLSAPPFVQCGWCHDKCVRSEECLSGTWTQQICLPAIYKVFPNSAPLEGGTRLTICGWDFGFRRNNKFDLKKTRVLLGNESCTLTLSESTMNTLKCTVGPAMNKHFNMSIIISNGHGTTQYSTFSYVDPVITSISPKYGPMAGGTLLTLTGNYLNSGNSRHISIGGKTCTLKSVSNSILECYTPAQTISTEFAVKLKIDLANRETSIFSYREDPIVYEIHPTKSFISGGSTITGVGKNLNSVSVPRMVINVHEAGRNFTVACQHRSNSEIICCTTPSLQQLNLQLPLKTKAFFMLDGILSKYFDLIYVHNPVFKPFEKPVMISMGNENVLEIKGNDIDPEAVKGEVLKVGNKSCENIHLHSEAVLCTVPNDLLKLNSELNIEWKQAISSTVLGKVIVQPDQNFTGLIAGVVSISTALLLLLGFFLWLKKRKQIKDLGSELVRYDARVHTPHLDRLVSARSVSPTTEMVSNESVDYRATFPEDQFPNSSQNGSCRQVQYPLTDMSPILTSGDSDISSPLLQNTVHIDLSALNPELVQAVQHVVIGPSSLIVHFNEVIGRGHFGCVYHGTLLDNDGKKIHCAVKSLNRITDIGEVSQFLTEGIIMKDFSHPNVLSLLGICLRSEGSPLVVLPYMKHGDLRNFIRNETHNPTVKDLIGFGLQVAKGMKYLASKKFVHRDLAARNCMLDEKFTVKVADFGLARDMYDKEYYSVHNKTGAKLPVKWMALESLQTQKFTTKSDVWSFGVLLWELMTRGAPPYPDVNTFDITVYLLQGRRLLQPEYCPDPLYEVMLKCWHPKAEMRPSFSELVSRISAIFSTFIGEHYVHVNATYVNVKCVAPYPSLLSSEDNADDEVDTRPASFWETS

Row | SMILES | IC50 (MET kinase) | IC50 ([1]; Mus musculus, BaF3, 72 h) | IC50 ([2]; Mus musculus, BaF3, 72 h) | IC50 [1, 3] | IC50 [2, 3] | IC50 [1, 4] | IC50 [2, 4] | inhibitory activity on C797S mutant EGFR-expressed cancer cell lines, comparison in words [1]
1 | COc1cc(N2CCC(N3CCN(C)CC3)CC2)ccc1Nc1ncc(Cl)c(Nc2ccccc2P(C)(C)=O)n1 [Brigatinib] | 70 nM | 560 nM | 860 nM | – | – | – | – | very less active
2 | COc1cc(N2CCC(N3CCN(C)CC3)CC2)ccc1Nc1ncc(Cl)c(Nc2ccccc2N(C)S(C)(=O)=O)n1 [Example 1, N-(2-((5-chloro-2-((2-methoxy-4-(4-(4-methylpiperazin-1-yl)piperidin-1-yl)phenyl)amino)pyrimidin-4-yl)amino)phenyl)-N-methylmethanesulfonamide] | 1 nM | – | – | 210 nM | 160 nM | – | – | –
3 | COc1cc(N2CCC(N3CCN(C)CC3)CC2)ccc1Nc1ncc(Cl)c(Nc2cc(F)ccc2N(C)S(C)(=O)=O)n1 [Example 2, N-(2-((5-chloro-2-((2-methoxy-4-(4-(4-methylpiperazin-1-yl)piperidin-1-yl)phenyl)amino)pyrimidin-4-yl)amino)-4-fluorophenyl)-N-methylmethanesulfonamide] | – | – | – | 222 nM | 533 nM | – | – | –

Continued, in another order:

Row | IC50 (MET kinase) | IC50 ([1]; Mus musculus, BaF3, 72 h) | IC50 ([2]; Mus musculus, BaF3, 72 h) | IC50 [1, 3] | IC50 [2, 3] | IC50 [1, 4] | IC50 [2, 4] | SMILES | inhibitory activity on C797S mutant EGFR-expressed cancer cell lines, comparison in words [1]
4 | – | – | – | 323 nM | 531 nM | – | – | COc1cc(N2CCC(N(C)C)CC2)ccc1Nc1ncc(Cl)c(Nc2ccccc2N(C)S(C)(=O)=O)n1 [Example 3, N-(2-((5-chloro-2-((4-(4-(dimethylamino)piperidin-1-yl)-2-methoxyphenyl)amino)pyrimidin-4-yl)amino)phenyl)-N-methylmethanesulfonamide] | –
5 | 120 nM | – | – | – | – | 5000 nM | 4000 nM | COc1cc(C2CCNCC2)ccc1Nc1ncc(Cl)c(Nc2ccccc2NS(C)(=O)=O)n1 [TRE-069] | very less active
